Among the test systems are CAKI-1 renal; HL-60(TB) leukemia; SN12C renal; MALME-3M melanoma; OVCAR-4 ovarian; UO-31 renal; TK-10 renal; SW-620 colon; COLO 205 colon.
What all share (test): NCI anticancer screen, dose series, 48 h

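Dose response: 5 concentrations. Exposure: 48 h. Format: 96-well plates. Endpoint: linear interpolation; highest concentration if not reached. Here, GI50 denotes the concentration required for 50% inhibition of growth. TGI: total growth inhibition.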

For the molecule `COC1CCC2C(NS(=O)(=O)c3ccc(C)cc3)CCCC2O1` (stereo not given) (tested in a mixture with another compound), the TGI in the assay on CAKI-1 renal is > 34.5 µM; in the assay on HL-60(TB) leukemia, 18.5 µM; in the assay with SN12C renal, > 34.5 µM; in the assay with MALME-3M melanoma, > 34.5 µM; with OVCAR-4 ovarian it was > 34.5 µM; in the assay on UO-31 renal, > 34.5 µM. Further, the TGI in the assay on TK-10 renal and in the assay with SW-620 colon was > 34.5 µM each time.
Take `CCCCCN(CCCCC)CCCNc1c2c(nc3ccc(Cl)cc13)CCCC2`: the GI50 is 2.18 µM in the assay with CAKI-1 renal; 2.92 µM with SN12C renal; 2.54 µM in the assay with MALME-3M melanoma; 2.05 µM in the assay on OVCAR-4 ovarian; 1.93 µM with UO-31 renal; 2.4 µM in the assay with TK-10 renal. Also, the figures for the GI50 with COLO 205 colon and in the assay on SW-620 colon were 1.28 µM and 1.97 µM, respectively. The TGI with CAKI-1 renal worked out at 6.83 µM; with SN12C renal it was 12.8 µM; with MALME-3M melanoma, 6.01 µM; in the assay with OVCAR-4 ovarian, 12 µM; with UO-31 renal it was 10.2 µM; in the assay with TK-10 renal, 7.24 µM. The values for the TGI in the assay on COLO 205 colon and in the assay on SW-620 colon were 2.81 µM and 8.55 µM, respectively.
As to `O=C(Nc1ccccc1)NS(=O)(=O)c1ccc(-n2nc3c(c2-c2cccs2)Cc2ccccc2-3)cc1`, the GI50 is 11.1 µM in the assay with CAKI-1 renal; 19.9 µM with SN12C renal; 34.9 µM in the assay with OVCAR-4 ovarian; 32.3 µM in the assay on UO-31 renal; 4.99 µM in the assay on TK-10 renal; 44 µM with COLO 205 colon. Also, the GI50 in the assay on SW-620 colon was 22.9 µM. The TGI in the assay on CAKI-1 renal is 44.1 µM; in the assay on SN12C renal, 64.2 µM; in the assay on OVCAR-4 ovarian it was > 100 µM; in the assay with UO-31 renal, > 100 µM; in the assay on TK-10 renal, 30.8 µM; in the assay on COLO 205 colon it was > 100 µM. The TGI in the assay on SW-620 colon worked out at 51.2 µM.
On to `CC(C)=CC(=O)C1c2cccc(O)c2C(=O)c2c(O)cc(C)cc21` (stereo not given), for which the TGI in the assay with CAKI-1 renal was 21.5 µM; in the assay on HL-60(TB) leukemia it was 9.15 µM; in the assay on SN12C renal, 25.4 µM; in the assay on MALME-3M melanoma, 7.93 µM; in the assay with OVCAR-4 ovarian, 4.52 µM; in the assay on UO-31 renal, 3.74 µM. Moreover, the TGI in the assay on TK-10 renal turned out to be 7.83 µM; in the assay on COLO 205 colon, 3.4 µM; with SW-620 colon, 10.2 µM.
As to `Cn1cc(C2=C(c3cn(C)c4ncccc34)C(=O)NC2=O)c2ccccc21`, the GI50 is 4.79 µM in the assay on CAKI-1 renal; 7.85 µM with HL-60(TB) leukemia; 6.9 µM in the assay with SN12C renal; 8.5 µM in the assay on MALME-3M melanoma; 17.8 µM in the assay with OVCAR-4 ovarian; 5.68 µM in the assay on UO-31 renal. Further, the GI50 in the assay with TK-10 renal was 10.8 µM; in the assay with COLO 205 colon, 5.23 µM; with SW-620 colon, 9.7 µM. Moreover, the TGI in the assay on CAKI-1 renal is > 17.2 µM; in the assay with HL-60(TB) leukemia, 20.1 µM; in the assay on SN12C renal, > 25 µM; in the assay on MALME-3M melanoma it was 20 µM; with OVCAR-4 ovarian it was > 25 µM; in the assay with UO-31 renal, > 19.8 µM. In addition, the TGI with TK-10 renal is > 25 µM; in the assay with COLO 205 colon, 13 µM; in the assay on SW-620 colon, > 25 µM.
Regarding `COc1ccc(C(=O)Cn2c(C(=O)c3ccccc3)nc(-c3ccc(OC)cc3)c2-c2ccc(OC)cc2)cc1`, the GI50 in the assay on CAKI-1 renal is 52.7 µM; in the assay on HL-60(TB) leukemia, > 100 µM; in the assay on SN12C renal, > 100 µM; in the assay on MALME-3M melanoma it was > 100 µM; in the assay on OVCAR-4 ovarian it was > 100 µM; in the assay on UO-31 renal, > 100 µM. Besides, the GI50 with TK-10 renal, with COLO 205 colon and in the assay with SW-620 colon was > 100 µM each time. Also, the TGI in the assay on CAKI-1 renal, with HL-60(TB) leukemia, in the assay with SN12C renal, in the assay on MALME-3M melanoma, in the assay with OVCAR-4 ovarian and with UO-31 renal was > 100 µM in each case. In addition, the TGI in the assay with TK-10 renal, in the assay with COLO 205 colon and in the assay on SW-620 colon was > 100 µM each time.
For the molecule `COC1(OC)CCC2C1C1CCC(OC)(OC)C21` (stereo not given), the TGI in the assay with CAKI-1 renal, with HL-60(TB) leukemia, in the assay on SN12C renal, in the assay on MALME-3M melanoma, in the assay with OVCAR-4 ovarian and with UO-31 renal was > 50 µM each time. Further, the TGI in the assay on COLO 205 colon and with SW-620 colon was > 50 µM in each case.
On to `Cc1cc(C)nc(NS(=O)(=O)c2ccc(NC(=O)c3ccc(Cl)c4c(Nc5ccc(S(=O)(=O)Nc6nc(C)cc(C)n6)cc5)c5ccccc5nc34)cc2)n1`, for which the TGI in the assay with CAKI-1 renal is > 100 µM; in the assay with HL-60(TB) leukemia, 11 µM; in the assay with SN12C renal, > 100 µM; with MALME-3M melanoma it was 53.5 µM; with OVCAR-4 ovarian it was 48.1 µM; in the assay on UO-31 renal it was 57.4 µM. The TGI with TK-10 renal is 83.1 µM; in the assay with COLO 205 colon, > 100 µM; in the assay with SW-620 colon it was > 100 µM.
Take `COc1cc2c(cc1OC)-c1c3cc(O)ccc3nn[n+]1CC2`: the TGI in the assay on HL-60(TB) leukemia, with SN12C renal, with OVCAR-4 ovarian, in the assay on TK-10 renal, in the assay on COLO 205 colon and in the assay on SW-620 colon was > 100 µM each time.
In the case of `CCCCC(=O)OCC(=O)[C@]1(O)Cc2c(O)c3c(c(O)c2[C@@H](OC2CC(NC(=O)C(F)(F)F)C(O)C(C)O2)C1)C(=O)c1c(OC)cccc1C3=O` (stereo not given in full), the TGI was 2.63 µM in the assay on CAKI-1 renal; 6.41 µM in the assay on HL-60(TB) leukemia; 3.91 µM in the assay with SN12C renal; 2.76 µM in the assay with MALME-3M melanoma; 8.71 µM in the assay on OVCAR-4 ovarian; 3.45 µM with UO-31 renal. Also, the TGI is 15.1 µM with TK-10 renal, 3.69 µM in the assay with COLO 205 colon and > 52.4 µM with SW-620 colon.
Regarding `O=C(O)CCc1coc2ccc(O)cc12`, the TGI in the assay on CAKI-1 renal, with HL-60(TB) leukemia, with SN12C renal, with OVCAR-4 ovarian, in the assay with TK-10 renal and in the assay on COLO 205 colon was > 100 µM in each case. Also, the TGI in the assay on SW-620 colon was > 100 µM.
In the case of `O=C(N/C(=C\c1ccc(/C=C(\NC(=O)c2ccccc2)c2nc3cc([N+](=O)[O-])ccc3[nH]2)cc1)c1nc2cc([N+](=O)[O-])ccc2[nH]1)c1ccccc1`, the TGI in the assay with CAKI-1 renal is > 100 µM; in the assay on SN12C renal, > 100 µM; with MALME-3M melanoma, > 100 µM; in the assay on OVCAR-4 ovarian it was > 100 µM; with UO-31 renal, > 100 µM; with TK-10 renal, 78.5 µM. Besides, the TGI in the assay with COLO 205 colon and in the assay with SW-620 colon was > 100 µM each time.

The record behind these values is PubChem BioAssay (NCI).
